Where two headings read alike, the source gives them in different places.
What was measured:
[1] = biological target: norepinephrine transporter (NET) (Rattus norvegicus, UniProt Q9WTR4); test: Norepinephrine reuptake ([^3H]norepinephrine uptake) inhibition in rat brain synaptosomes; details: for NE Uptake Emax (% I ± SD): maximal inhibition from dose-response fit
[2] = biological target: T1, dopamine transporter (DAT) (Rattus norvegicus, UniProt P23977); test: Dopamine reuptake ([^3H]dopamine uptake) inhibition in rat brain synaptosomes
DAT = biological target: T2, DAT (Rattus norvegicus, UniProt P23977); test: Dopamine transporter binding, inhibition of [^3H]WIN35428 binding in rat caudate membranes; details: for EC50: read-out: WIN Binding EC50 (μM ± SD)
T2 construct: from tissue; host or cells: rat caudate membranes
Method: The ability of test drugs to inhibit [^3H]WIN35428 binding to DAT in rat caudate membranes was assessed as follows. For each experiment, caudates from four rat brains were suspended in 15 mL ice cold assay buffer (50 mM sodium phosphate pH 7.4) and homogenized using a polytron (setting 6, 20 sec). The homogenate was centrifuged at 30,000×g for 10 minutes at 4° C. The pellet was resuspended with vigorous vortexing in 15 mL fresh ice cold assay buffer, and the centrifugation was repeated. The pellet was resuspended in 15 mL fresh ice cold assay buffer with vigorous vortexing followed by six strokes with a glass-on-glass hand-held homogenizer and was diluted to a final volume of 235 mL in ice cold assay buffer. [^3H]WIN35428 was diluted to 10 nM in assay buffer that contained 25 μg/mL chymostatin, 25 μg/mL leupeptin, 0.1 mM EDTA, and 0.1 mM EGTA. Each assay tube contained 0.75 mL membrane preparation, 0.15 mL test drug diluted in assay buffer containing 1 mg/mL bovine serum albumin, and 0.1 mL [^3H]WIN35428 preparation (final concentration of 1 nM). Assays were initiated by the addition of membranes and were terminated after 2 hours at 25° C. by rapid vacuum filtration. Retained tritium was measured as described. The data from three experiments were pooled and fit to a dose-response curve equation (using Kaleidagraph), to yield an Emax and EC50 value.

[3] = biological target: T1, dopamine transporter (DAT); test: Dopamine transporter-mediated [^3H]MPP^+ release, shift of D-amphetamine-induced release, rat caudate synaptosomes; assay type: biochemical; set-up: Freshly removed caudate was homogenized in 10% ice-cold sucrose; from tissue; host or cells: rat caudate synaptosomes; details: for Apparent Kc: [3H]MPP+ release, Apparent Kc = [Blocker]/((EC50-2/EC50-1) − 1), negative when shifted EC50 is less than control; for Kb: apparent Ke from shift of D-amphetamine-induced [^3H]MPP^+ release, compound at the concentration of column 1, read-out: Ke App
[4] = biological target: T3, serotonin transporter (SERT) (Rattus norvegicus, UniProt P31652); test: Serotonin reuptake ([^3H]serotonin uptake) inhibition in rat brain synaptosomes; assay type: biochemical
T3 construct: Freshly removed whole brain minus cerebellum and caudate was homogenized; from tissue; host or cells: rat whole brain minus cerebellum and caudate, synaptosomes

[5] = rat brain synaptosomes, 10 nM [^3H]norepinephrine
[6] = read-out: NE Uptake EC50 (nM ± SD), rat brain synaptosomes, 10 nM [^3H]norepinephrine, 10 min, 37° C.
[7] = read-out: NET Uptake IC50, mean ± S.D., n = 3
[8] = DAT Uptake IC50, [3H]DA uptake inhibition, mean ± S.D., n = 3
[9] = IC50 for DAT Uptake Inhibition, rounded value as listed in Table 10
[10] = read-out: Emax for DAT Uptake Inhibition
[11] = 2 h, read-out: DAT Binding εmax
[12] = mean ± S.D., n = 3, read-out: SERT Uptake Emax
[13] = mean ± S.D., n = 3, read-out: SERT Uptake IC50
[14] = Emax of D-amphetamine for [^3H]MPP^+ release in presence of 150 nM test compound
[15] = Emax of D-amphetamine for [^3H]MPP^+ release in presence of 50 nM test compound

T3 sequence (P31652 whole entry): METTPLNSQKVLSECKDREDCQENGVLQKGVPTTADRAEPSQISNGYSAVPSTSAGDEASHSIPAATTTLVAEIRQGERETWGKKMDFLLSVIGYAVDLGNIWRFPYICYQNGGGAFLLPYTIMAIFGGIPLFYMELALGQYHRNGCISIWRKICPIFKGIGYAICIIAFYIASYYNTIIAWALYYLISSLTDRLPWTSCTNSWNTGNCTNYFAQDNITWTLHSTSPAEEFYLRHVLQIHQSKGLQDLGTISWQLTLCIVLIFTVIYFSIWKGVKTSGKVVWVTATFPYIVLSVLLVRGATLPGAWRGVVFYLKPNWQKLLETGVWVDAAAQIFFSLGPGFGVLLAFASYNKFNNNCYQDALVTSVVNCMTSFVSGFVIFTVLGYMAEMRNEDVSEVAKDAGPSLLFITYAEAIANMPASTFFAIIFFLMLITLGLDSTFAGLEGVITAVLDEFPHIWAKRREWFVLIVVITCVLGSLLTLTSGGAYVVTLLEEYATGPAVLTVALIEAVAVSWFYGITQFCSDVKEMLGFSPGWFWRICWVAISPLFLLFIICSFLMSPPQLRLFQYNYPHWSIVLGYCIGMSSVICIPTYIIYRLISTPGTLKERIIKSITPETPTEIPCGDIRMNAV
T2 sequence (P23977 whole entry): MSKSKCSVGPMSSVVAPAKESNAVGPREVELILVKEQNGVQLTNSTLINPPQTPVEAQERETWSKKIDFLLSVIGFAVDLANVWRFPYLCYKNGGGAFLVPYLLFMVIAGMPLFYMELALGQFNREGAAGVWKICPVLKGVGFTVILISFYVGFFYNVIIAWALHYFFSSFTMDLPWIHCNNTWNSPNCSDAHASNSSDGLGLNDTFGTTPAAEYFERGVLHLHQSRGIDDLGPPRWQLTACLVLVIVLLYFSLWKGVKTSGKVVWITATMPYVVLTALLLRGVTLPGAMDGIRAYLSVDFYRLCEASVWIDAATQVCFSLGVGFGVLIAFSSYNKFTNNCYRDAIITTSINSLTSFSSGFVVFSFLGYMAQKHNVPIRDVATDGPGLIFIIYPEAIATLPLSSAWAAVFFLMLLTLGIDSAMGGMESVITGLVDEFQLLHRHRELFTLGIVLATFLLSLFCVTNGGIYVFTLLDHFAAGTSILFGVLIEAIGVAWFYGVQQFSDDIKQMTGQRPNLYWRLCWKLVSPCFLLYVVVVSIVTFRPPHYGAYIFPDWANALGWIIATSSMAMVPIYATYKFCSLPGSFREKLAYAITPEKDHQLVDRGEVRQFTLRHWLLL
T1 sequence (P23977 whole entry): as above

NET Uptake Emax ([1]; mean ± S.D., n = 3) [%]	NE Uptake Emax (% I ± SD) [1, 5] [% I]	IC50 [1, 6] [nM]	IC50 [1, 7] [nM]	IC50 [2, 8] [nM]	IC50 [2, 9] [nM]	Emax ([2]; read-out: DAT Uptake Emax) [%]	Emax [2, 10] [%]	Emax (DAT; [11]) [%]	EC50 (DAT) [µM]	Apparent Kc [3] [nM]	Kb [3] [nM]	Emax [4, 12] [%]	IC50 [4, 13] [nM]	Structure (SMILES)	also measured
71 ± 6	71 ± 6	147 ± 63	147 ± 63	7.3 ± 2.2	7	63 ± 3	63	83 ± 3	1.2 ± 0.2	912	912	51 ± 2	42 ± 12	CN(C)c1ccc(-c2nc(NCC(c3ccccc3)c3ccccc3)c3ccccc3n2)cn1 [compound 69, 2-(6-(Dimethylamino)Pyridin-3-yl)-N-(2,2-Diphenylethyl)Quinazolin-4-Amine]	D-Amphetamine Emax (% ± SD) ([3]; Emax of D-amphetamine for [^3H]MPP^+ release in presence of 250 nM test compound): 99 ± 2%
81 ± 2	81 ± 2	88 ± 15	88 ± 15	6.1 ± 1	6	64 ± 2	64	42 ± 3		1600	1600	56 ± 2	18 ± 4	c1ccc(C(CNc2nc(-c3ccc4nccn4c3)nc3ccccc23)c2ccc[nH]2)cc1 (centres unmarked) [compound 117, 2-(Imidazo[1,2-A]Pyridin-6-yl)-N-(2-Phenyl-2-(1H-Pyrrol-2-yl)Ethyl)Quinazolin-4-Amine]	D-Amphetamine Emax (% ± SD) [3, 14]: 105 ± 4%
69 ± 4			16 ± 5	1.7 ± 0.1	2	69 ± 1		52 ± 8		46			3 ± 0.6	Cc1cc2nccn2cc1-c1nc(NCC(O)(c2ccccc2)c2ccccc2)c2ccccc2n1 [compound 152, 2-((2-(7-Methylimidazo[1,2-A]Pyridin-6-yl)Quinazolin-4-yl)Amino)-1,1-Diphenylethanol]	D-Amphetamine Emax (% ± SD) [3, 15]: 104 ± 4%
71 ± 2			90 ± 15	4.4 ± 0.8	4		70	65 ± 6		-553			20 ± 5	CS(=O)(=O)Nc1ccc(-c2nc(NCC(c3ccccc3)c3ccccc3)c3ccccc3n2)cc1 [SRI-29577]	
	64 ± 10	1740 ± 1150							1.8 ± 0.4		7050			CN(C)c1ncc(-c2nc(NC(c3ccccc3)c3ccccc3)c3ccccc3n2)cn1 [compound 12, N-Benzhydryl-2-(2-(dimethylamino)pyrimidin-5-yl)quinazolin-4-amine]	IC50 ([2]; DA Uptake EC50 (nM ± SD), rat caudate synaptosomes, 5 nM [^3H]dopamine, 15 min, 25° C., three experiments pooled): 174 ± 58 nM; Emax ([2]; read-out: DA Uptake Emax (% I ± SD)): 66 ± 4%; Emax (DAT; read-out: WIN Binding Emax (% I ± SD)): 71 ± 4%; D-Amphetamine Emax (% ± SD) ([3]; Emax of D-amphetamine for [^3H]MPP^+ release in presence of 5000 nM test compound): 98 ± 1%; IC50 ([4]; rat brain synaptosomes, 5 nM [^3H]serotonin, 30 min, 25° C., read-out: 5HT Uptake EC50 (nM ± SD)): 699 ± 164 nM; Emax ([4]; rat brain synaptosomes, 5 nM [^3H]serotonin, maximal inhibition from dose-response fit, read-out: 5HT Uptake Emax (% I ± SD)): 48 ± 3%
73 ± 4	73 ± 4	181 ± 46	181 ± 46	20 ± 1	20	73 ± 1	73	76 ± 2	1.7 ± 0.2	1820	1820	55 ± 5	37 ± 18	CN(C)c1ncc(-c2nc(NCC(c3ccccc3)c3ccccc3)c3ccccc3n2)cn1 [compound 16, 2-(2-(Dimethylamino)pyrimidin-5-yl)-N-(2,2-diphenylethyl)quinazolin-4-amine]	D-Amphetamine Emax (% ± SD) ([3]; Emax of D-amphetamine for [^3H]MPP^+ release in presence of 500 nM test compound): 101 ± 3%
67 ± 3	67 ± 3	21 ± 7	21 ± 7	0.5 ± 0.1	0.5	63 ± 2	63	79 ± 3		267	267	58 ± 3	3.2 ± 0.9	Cc1cc2nccn2cc1-c1nc(NCC(c2ccccc2)c2ccccc2)c2ccccc2n1 [compound 118, N-(2,2-Diphenylethyl)-2-(7-Methylimidazo[1,2-A]Pyridin-6-yl)Quinazolin-4-Amine]	D-Amphetamine Emax (% ± SD) ([3]; Emax of D-amphetamine for [^3H]MPP^+ release in presence of 12.5 nM test compound): 104 ± 3%
69 ± 2	69 ± 2	60 ± 10	60 ± 10	5.6 ± 0.8	6	64 ± 1	64	25 ± 2		1200	1200	51 ± 2	11 ± 3	c1ccc(C(CNc2nc(-c3cnc4nccn4c3)nc3ccccc23)c2ccncc2)cc1 (centres unmarked) [compound 110, 2-(Imidazo[1,2-A]Pyrimidin-6-yl)-N-(2-Phenyl-2-(Pyridin-4-yl)Ethyl)Quinazolin-4-Amine]	D-Amphetamine Emax (% ± SD) [3, 14]: 104 ± 5%
61 ± 2			17 ± 4	1.9 ± 0.3	2	72 ± 2	72	92 ± 4		400	400		2.4 ± 0.4	Cc1cc2nccn2cc1-c1nc(NCC(c2ccccc2)c2ccncc2)c2ccccc2n1 (centres unmarked) [compound 151, 2-(7-Methylimidazo[1,2-A]Pyridin-6-yl)-N-(2-Phenyl-2-(Pyridin-4-yl)Ethyl)Quinazolin-4-Amine]	D-Amphetamine Emax (% ± SD) [3, 15]: 103 ± 3%

Source: patent US9873702B2, “Heterocyclic compounds as biogenic amine transport modulators” (Southern Research Institute, priority 2014, dated 2018)
